Target: T1, N-terminal HiBiT tagged BCL6 (Homo sapiens, UniProt P41182)
T1 construct: expressed in transfected cells; host or cells: HT1080 (ATCC CCL-121), stably transduced with lentivirus pLV-UBC-N-HiBiT-BCL6-PGK-puro
Assay: HiBiT based degradation assay
Assay type: cell-based
Settings: HT1080 cells expressing N-terminal HiBiT tagged BCL6, 5 hours of incubation; for Ymin (5 hr): BCL6 degradation normalized with DMSO control; for DC50: four-parameter logistic model, read-out: EC50 (5 hr)
Summary of the method: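 Degradation measured by luminescence from the Nano-Glo HiBiT lytic reagent (15 min, room temperature), normalized to DMSO controls and fitted to a four-parameter curve.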

Compound | Ymin (5 hr) | DC50 [nM]
CNC(=O)COc1cc2cc(Nc3nc(N4CCC(CN5CCN(c6cccc7c(C8CCC(=O)NC8=O)nn(C)c67)[C@@H](C)C5)CC4)ncc3Cl)cnc2n(C(C)C)c1=O (stereo partly drawn) [Compound 169a, 2-((6-((5-chloro-2-(4-(((3S)-4-(3-(2,6-dioxopiperidin-3-yl)-1-methyl-1H-indazol-7-yl)-3-methylpiperazin-1-yl)methyl)piperidin-1-yl)pyrimidin-4-yl)amino)-1-isopropyl-2-oxo-1,2-dihydro-1,8-naphthyridin-3-yl)oxy)-N-methylacetamide] | ++++ (Ymin < 30%) | < 10
CNC(=O)COc1cc2cc(Nc3nc(N4CCC(CN5CCN(c6cccc7c(C8CCC(=O)NC8=O)nn(C)c67)[C@H](C)C5)CC4)ncc3Cl)cnc2n(C(C)C)c1=O (stereo partly drawn) [Compound 169b, 2-((6-((5-chloro-2-(4-(((3R)-4-(3-(2,6-dioxopiperidin-3-yl)-1-methyl-1H-indazol-7-yl)-3-methylpiperazin-1-yl)methyl)piperidin-1-yl)pyrimidin-4-yl)amino)-1-isopropyl-2-oxo-1,2-dihydro-1,8-naphthyridin-3-yl)oxy)-N-methylacetamide] | ++++ (Ymin < 30%) | < 10
CNC(=O)COc1cc2cc(Nc3nc(N4CCN(CC5CCN(c6cccc7c(C8CCC(=O)NC8=O)nn(C)c67)CC5)CC4)ncc3Cl)cnc2n(CC(F)(F)F)c1=O (centres unmarked) [Compound 170, 2-[[6-[[5-chloro-2-[4-[[1-[3-(2,6-dioxo-3-piperidyl)-1-methyl-indazol-7-yl]-4-piperidyl]methyl]piperazin-1-yl]pyrimidin-4-yl]amino]-2-oxo-1-(2,2,2-trifluoroethyl)-1,8-naphthyridin-3-yl]oxy]-N-methyl-acetamide] | ++++ (Ymin < 30%) | 10 to 100
CNC(=O)COc1cc2cc(Nc3nc(N4CCC(C(C)(C)N5CCN(c6ccc7c(C8CCC(=O)NC8=O)nn(C)c7c6)CC5)CC4)ncc3Cl)cnc2n(C(C)C)c1=O (centres unmarked) [Compound 171, 2-[[6-[[5-chloro-2-[4-[1-[4-[3-(2,6-dioxo-3-piperidyl)-1-methyl-indazol-6-yl]piperazin-1-yl]-1-methyl-ethyl]-1-piperidyl]pyrimidin-4-yl]amino]-1-isopropyl-2-oxo-1,8-naphthyridin-3-yl]oxy]-N-methyl-acetamide] | ++ (50% ≤ Ymin < 70%) | < 10
CNC(=O)COc1cc2cc(Nc3nc(N4CCN(CC5CCN(c6cccc7c(C8CCC(=O)NC8=O)nn(C)c67)CC5)C(C)(C)C4)ncc3Cl)cnc2n(C(C)C)c1=O (centres unmarked) [Compound 172, 2-[[6-[[5-chloro-2-[4-[[1-[3-(2,6-dioxo-3-piperidyl)-1-methyl-indazol-7-yl]-4-piperidyl]methyl]-3,3-dimethyl-piperazin-1-yl]pyrimidin-4-yl]amino]-1-isopropyl-2-oxo-1,8-naphthyridin-3-yl]oxy]-N-methyl-acetamide] | +++ (30% ≤ Ymin < 50%) | 10 to 100
CNC(=O)COc1cc2cc(Nc3nc(N4C5CC4CN(CC4CCN(c6cccc7c(C8CCC(=O)NC8=O)nn(C)c67)CC4)C5)ncc3Cl)cnc2n(C(C)C)c1=O (centres unmarked) [Compound 173, 2-[[6-[[5-chloro-2-[3-[[1-[3-(2,6-dioxo-3-piperidyl)-1-methyl-indazol-7-yl]-4-piperidyl]methyl]-3,6-diazabicyclo[3.1.1]heptan-6-yl]pyrimidin-4-yl]amino]-1-isopropyl-2-oxo-1,8-naphthyridin-3-yl]oxy]-N-methyl-acetamide] | ++ (50% ≤ Ymin < 70%) | 10 to 100
CNC(=O)COc1cc2cc(Nc3nc(N4C[C@H]5C[C@@H]4CN5CC4CCN(c5cccc6c(C7CCC(=O)NC7=O)nn(C)c56)CC4)ncc3Cl)cnc2n(C(C)C)c1=O (stereo partly drawn) [Compound 174a, 2-[[6-[[5-chloro-2-[(1R,4R)-5-[[1-[3-(2,6-dioxo-3-piperidyl)-1-methyl-indazol-7-yl]-4-piperidyl]methyl]-2,5-diazabicyclo[2.2.1]heptan-2-yl]pyrimidin-4-yl]amino]-1-isopropyl-2-oxo-1,8-naphthyridin-3-yl]oxy]-N-methyl-acetamide] | ++ (50% ≤ Ymin < 70%) | < 10
CNC(=O)COc1cc2cc(Nc3nc(N4C[C@@H]5C[C@H]4CN5CC4CCN(c5cccc6c(C7CCC(=O)NC7=O)nn(C)c56)CC4)ncc3Cl)cnc2n(C(C)C)c1=O (stereo partly drawn) [Compound 174b, 2-[[6-[[5-chloro-2-[(1S,4S)-5-[[1-[3-(2,6-dioxo-3-piperidyl)-1-methyl-indazol-7-yl]-4-piperidyl]methyl]-2,5-diazabicyclo[2.2.1]heptan-2-yl]pyrimidin-4-yl]amino]-1-isopropyl-2-oxo-1,8-naphthyridin-3-yl]oxy]-N-methyl-acetamide] | +++ (30% ≤ Ymin < 50%) | 10 to 100
CNC(=O)COc1cc2cc(Nc3nc(N4CCC(CN5C[C@H]6C[C@@H]5CN6c5cccc6c(C7CCC(=O)NC7=O)nn(C)c56)CC4)ncc3Cl)cnc2n(C(C)C)c1=O (stereo partly drawn) [Compound 175a, 2-[[6-[[5-chloro-2-[4-[[(1R,4R)-5-[3-(2,6-dioxo-3-piperidyl)-1-methyl-indazol-7-yl]-2,5-diazabicyclo[2.2.1]heptan-2-yl]methyl]-1-piperidyl]pyrimidin-4-yl]amino]-1-isopropyl-2-oxo-1,8-naphthyridin-3-yl]oxy]-N-methyl-acetamide] | +++ (30% ≤ Ymin < 50%) | < 10
CNC(=O)COc1cc2cc(Nc3nc(N4CCC(CN5C[C@@H]6C[C@H]5CN6c5cccc6c(C7CCC(=O)NC7=O)nn(C)c56)CC4)ncc3Cl)cnc2n(C(C)C)c1=O (stereo partly drawn) [Compound 175b, 2-[[6-[[5-chloro-2-[4-[[(1S,4S)-5-[3-(2,6-dioxo-3-piperidyl)-1-methyl-indazol-7-yl]-2,5-diazabicyclo[2.2.1]heptan-2-yl]methyl]-1-piperidyl]pyrimidin-4-yl]amino]-1-isopropyl-2-oxo-1,8-naphthyridin-3-yl]oxy]-N-methyl-acetamide] | +++ (30% ≤ Ymin < 50%) | < 10
CNC(=O)COc1cc2cc(Nc3nc(N4CC[C@H](CN5CCN(c6ccc7c(C8CCC(=O)NC8=O)nn(C)c7c6)CC5)[C@H](C)C4)ncc3Cl)cnc2n(C(C)C)c1=O (stereo partly drawn) [Compound 176a, 2-((6-((5-chloro-2-((3S,4S)-4-((4-(3-(2,6-dioxopiperidin-3-yl)-1-methyl-1H-indazol-6-yl)piperazin-1-yl)methyl)-3-methylpiperidin-1-yl)pyrimidin-4-yl)amino)-1-isopropyl-2-oxo-1,2-dihydro-1,8-naphthyridin-3-yl)oxy)-N-methylacetamide] | +++ (30% ≤ Ymin < 50%) | < 10
CNC(=O)COc1cc2cc(Nc3nc(N4CC[C@H](CN5CCN(c6ccc7c(C8CCC(=O)NC8=O)nn(C)c7c6)CC5)[C@@H](C)C4)ncc3Cl)cnc2n(C(C)C)c1=O (stereo partly drawn) [Compound 176b, 2-((6-((5-chloro-2-((3R,4S)-4-((4-(3-(2,6-dioxopiperidin-3-yl)-1-methyl-1H-indazol-6-yl)piperazin-1-yl)methyl)-3-methylpiperidin-1-yl)pyrimidin-4-yl)amino)-1-isopropyl-2-oxo-1,2-dihydro-1,8-naphthyridin-3-yl)oxy)-N-methylacetamide] | +++ (30% ≤ Ymin < 50%) | < 10
CNC(=O)COc1cc2cc(Nc3nc(N4CC[C@@H](CN5CCN(c6ccc7c(C8CCC(=O)NC8=O)nn(C)c7c6)CC5)[C@@H](C)C4)ncc3Cl)cnc2n(C(C)C)c1=O (stereo partly drawn) [Compound 176c, 2-((6-((5-chloro-2-((3R,4R)-4-((4-(3-(2,6-dioxopiperidin-3-yl)-1-methyl-1H-indazol-6-yl)piperazin-1-yl)methyl)-3-methylpiperidin-1-yl)pyrimidin-4-yl)amino)-1-isopropyl-2-oxo-1,2-dihydro-1,8-naphthyridin-3-yl)oxy)-N-methylacetamide] | +++ (30% ≤ Ymin < 50%) | 10 to 100
CNC(=O)COc1cc2cc(Nc3nc(N4CC[C@@H](CN5CCN(c6ccc7c(C8CCC(=O)NC8=O)nn(C)c7c6)CC5)[C@H](C)C4)ncc3Cl)cnc2n(C(C)C)c1=O (stereo partly drawn) [Compound 176d, 2-[[6-[[5-chloro-2-[(3S,4R)-4-[[4-[3-(2,6-dioxo-3-piperidyl)-1-methyl-indazol-6-yl]piperazin-1-yl]methyl]-3-methyl-1-piperidyl]pyrimidin-4-yl]amino]-1-isopropyl-2-oxo-1,8-naphthyridin-3-yl]oxy]-N-methyl-acetamide] | +++ (30% ≤ Ymin < 50%) | < 10
CNC(=O)COc1cc2cc(Nc3nc(N4CC[C@H](CN5CCN(c6cccc7c(C8CCC(=O)NC8=O)nn(C)c67)CC5)[C@H](C)C4)ncc3Cl)cnc2n(C(C)C)c1=O (stereo partly drawn) [Compound 177a, 2-((6-((5-chloro-2-((3S,4S)-4-((4-(3-(2,6-dioxopiperidin-3-yl)-1-methyl-1H-indazol-7-yl)piperazin-1-yl)methyl)-3-methylpiperidin-1-yl)pyrimidin-4-yl)amino)-1-isopropyl-2-oxo-1,2-dihydro-1,8-naphthyridin-3-yl)oxy)-N-methylacetamide] | ++++ (Ymin < 30%) | 10 to 100
CNC(=O)COc1cc2cc(Nc3nc(N4CC[C@@H](CN5CCN(c6cccc7c(C8CCC(=O)NC8=O)nn(C)c67)CC5)[C@@H](C)C4)ncc3Cl)cnc2n(C(C)C)c1=O (stereo partly drawn) [Compound 177b, 2-[[6-[[5-chloro-2-[(3R,4R)-4-[[4-[3-(2,6-dioxo-3-piperidyl)-1-methyl-indazol-7-yl]piperazin-1-yl]methyl]-3-methyl-1-piperidyl]pyrimidin-4-yl]amino]-1-isopropyl-2-oxo-1,8-naphthyridin-3-yl]oxy]-N-methyl-acetamide] | +++ (30% ≤ Ymin < 50%) | 10 to 100

Source: US20260241012A1, “1,8-NAPHTHYRIDIN-2-ONE HETEROBIFUNCTIONAL BCL6 DEGRADERS” (Treeline Biosciences, Inc., priority 2022, published 2026)
